# Laboratory results taken from patent publication US20100298141A1, “SUBSTITUTED PYRIDINE N-OXIDE HERBICIDES” (E. I. DU PONT DE NEMOURS AND COMPANY, priority 2007, published 2010).
# How the values were obtained:
# [1] = test system: field sandbur; assay: Test G preemergence test; type: in vivo, Cenchrus incertus; conditions: scale 0 to 100
# [2] = test system: millet foxtail; assay: Test G preemergence test; type: in vivo, Setaria italica; conditions: scale 0 to 100
# [3] = test system: barnyardgrass; assay: Test B flooded paddy test; type: in vivo, Echinochloa crus-galli; conditions: Flood, 250 g ai/ha, 13 to 15 days; scale 0 to 100, 0 no effect, 100 complete control
# Outline: (§1)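 Greenhouse pots flooded to 3 cm above soil at time of treatment received compound via the water, which stayed at that level.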
# [4] = test system: winter barley; assay: Test D preemergence test; type: in vivo, Hordeum vulgare
# Outline: (§2)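 Test chemicals, in a non-phytotoxic solvent blend with surfactant, were applied preemergence to planted seeds; where no result was obtained, a dash is shown.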
# [5] = test system: corn; assay: Test G preemergence test; type: in vivo, Zea mays; conditions: scale 0 to 100
# [6] = test system: soybean; assay: Test G preemergence test; type: in vivo, Glycine max; conditions: scale 0 to 100
# [7] = test system: tall waterhemp; assay: Test G preemergence test; type: in vivo, Amaranthus tuberculatos; conditions: scale 0 to 100
# [8] = test system: annual bluegrass; assay: Test D preemergence test; type: in vivo, Poa annua; conditions: scale 0 to 100
# Outline: as §2
# [9] = test system: eastern black nightshade; assay: Test G preemergence test; type: in vivo, Solanum ptycanthum; conditions: scale 0 to 100
# [10] = test system: wild oat; assay: Test D preemergence test; type: in vivo, Avena fatua; conditions: scale 0 to 100
# Outline: as §2
# [11] = test system: umbrella sedge; assay: Test B flooded paddy test; type: in vivo, Cyperus difformis; conditions: Flood, 250 g ai/ha, 13 to 15 days; scale 0 to 100, 0 no effect, 100 complete control
# Outline: as §1
# [12] = test system: windgrass; assay: Test D preemergence test; type: in vivo, Apera spica-venti; conditions: scale 0 to 100
# Outline: as §2
# [13] = test system: green foxtail; assay: Test D preemergence test; type: in vivo, Setaria viridis; conditions: scale 0 to 100
# Outline: as §2
# [14] = test system: lambsquarters; assay: Test G preemergence test; type: in vivo, Chenopodium album; conditions: scale 0 to 100
# [15] = test system: barnyardgrass; assay: Test G preemergence test; type: in vivo, Echinochloa crus-galli; conditions: scale 0 to 100
# [16] = test system: duck salad; assay: Test B flooded paddy test; type: in vivo, Heteranthera limosa; conditions: Flood, 250 g ai/ha, 13 to 15 days; scale 0 to 100, 0 no effect, 100 complete control
# Outline: as §1
# [17] = test system: rice; assay: Test B flooded paddy test; type: in vivo, Oryza sativa; conditions: Flood, 250 g ai/ha, 13 to 15 days; scale 0 to 100, 0 no effect, 100 complete control
# Outline: as §1
# [18] = test system: broadleaf signalgrass; assay: Test G preemergence test; type: in vivo, Brachiaria platyphylla; conditions: scale 0 to 100
# [19] = test system: giant foxtail; assay: Test G preemergence test; type: in vivo, Setaria faberii; conditions: scale 0 to 100
# [20] = test system: woolly cupgrass; assay: Test G preemergence test; type: in vivo, Eriochloa villosa; conditions: scale 0 to 100
# [21] = test system: large crabgrass; assay: Test G preemergence test; type: in vivo, Digitaria sanguinalis; conditions: scale 0 to 100
# [22] = test system: littleseed canarygrass; assay: Test D preemergence test; type: in vivo, Phalaris minor; conditions: scale 0 to 100
# Outline: as §2
# [23] = test system: millet; assay: Test G preemergence test; type: in vivo, Panicum miliaceum; conditions: scale 0 to 100
# [24] = test system: winter wheat; assay: Test D preemergence test; type: in vivo, Triticum aestivum; conditions: scale 0 to 100
# Outline: as §2
# [25] = test system: field violet; assay: Test D preemergence test; type: in vivo, Viola arvensis; conditions: scale 0 to 100
# Outline: as §2
# [26] = test system: goosegrass; assay: Test G preemergence test; type: in vivo, Eleusine indica; conditions: scale 0 to 100
structure (smiles),measurement,setting,value
Cn1nc(C(F)(F)F)c(C[S+]([O-])c2cccc[n+]2[O-])c1OC(F)F (centres unmarked) [Compound 3],"Plant response rating, Sandbur",[1]; 31 g ai/ha,0
same,"Plant response rating, Sandbur",[1]; 62 g ai/ha,35
same,"Plant response rating, Sandbur",[1]; 125 g ai/ha,95
same,"Plant response rating, Sandbur",[1]; 250 g ai/ha,95
same,"Plant response rating, Foxtail, Millet",[2]; 31 g ai/ha,0
same,"Plant response rating, Foxtail, Millet",[2]; 62 g ai/ha,80
same,"Plant response rating, Foxtail, Millet",[2]; 125 g ai/ha,100
same,"Plant response rating, Foxtail, Millet",[2]; 250 g ai/ha,100
same,"Plant response rating, Barnyardgrass",[3],60
same,"Plant response rating, Barley","[4]; Preemergence, 62 g ai/ha, scale 0 to 100",0
same,"Plant response rating, Barley","[4]; Preemergence, 125 g ai/ha, scale 0 to 100",0
same,"Plant response rating, Barley","[4]; Preemergence, 31 g ai/ha, scale 0 to 100",0
same,"Plant response rating, Barley","[4]; preemergence, 250 g ai/ha, scale 0 (no effect) to 100 (complete control)",15
same,"Plant response rating, Corn",[5]; 31 g ai/ha,0
same,"Plant response rating, Corn",[5]; 62 g ai/ha,0
same,"Plant response rating, Corn",[5]; 125 g ai/ha,10
same,"Plant response rating, Corn",[5]; 250 g ai/ha,60
same,"Plant response rating, Soybean",[6]; 31 g ai/ha,0
same,"Plant response rating, Soybean",[6]; 62 g ai/ha,15
same,"Plant response rating, Soybean",[6]; 125 g ai/ha,20
same,"Plant response rating, Soybean",[6]; 250 g ai/ha,35
same,"Plant response rating, Waterhemp",[7]; 31 g ai/ha,0
same,"Plant response rating, Waterhemp",[7]; 62 g ai/ha,0
same,"Plant response rating, Waterhemp",[7]; 125 g ai/ha,100
same,"Plant response rating, Waterhemp",[7]; 250 g ai/ha,100
same,"Plant response rating, Bluegrass",[8]; 31 g ai/ha,0
same,"Plant response rating, Bluegrass",[8]; 62 g ai/ha,20
same,"Plant response rating, Bluegrass",[8]; 125 g ai/ha,100
same,"Plant response rating, Bluegrass",[8]; 250 g ai/ha,100
same,"Plant response rating, Nightshade",[9]; 31 g ai/ha,0
same,"Plant response rating, Nightshade",[9]; 62 g ai/ha,60
same,"Plant response rating, Nightshade",[9]; 125 g ai/ha,65
same,"Plant response rating, Nightshade",[9]; 250 g ai/ha,100
same,"Plant response rating, Oat, Wild",[10]; 31 g ai/ha,0
same,"Plant response rating, Oat, Wild",[10]; 62 g ai/ha,0
same,"Plant response rating, Oat, Wild",[10]; 125 g ai/ha,10
same,"Plant response rating, Oat, Wild",[10]; 250 g ai/ha,20
same,"Plant response rating, Umbrella Sedge",[11],100
same,"Plant response rating, Windgrass",[12]; 31 g ai/ha,0
same,"Plant response rating, Windgrass",[12]; 62 g ai/ha,75
same,"Plant response rating, Windgrass",[12]; 125 g ai/ha,100
same,"Plant response rating, Windgrass",[12]; 250 g ai/ha,100
same,"Plant response rating, Foxtail, Green",[13]; 31 g ai/ha,0
same,"Plant response rating, Foxtail, Green",[13]; 62 g ai/ha,35
same,"Plant response rating, Foxtail, Green",[13]; 125 g ai/ha,60
same,"Plant response rating, Foxtail, Green",[13]; 250 g ai/ha,100
same,"Plant response rating, Lambsquarters",[14]; 31 g ai/ha,0
same,"Plant response rating, Lambsquarters",[14]; 62 g ai/ha,0
same,"Plant response rating, Lambsquarters",[14]; 125 g ai/ha,100
same,"Plant response rating, Lambsquarters",[14]; 250 g ai/ha,100
same,"Plant response rating, Barnyardgrass",[15]; 31 g ai/ha,0
same,"Plant response rating, Barnyardgrass",[15]; 62 g ai/ha,70
same,"Plant response rating, Barnyardgrass",[15]; 125 g ai/ha,100
same,"Plant response rating, Barnyardgrass",[15]; 250 g ai/ha,100
same,"Plant response rating, Ducksalad",[16],90
same,"Plant response rating, Rice, Transplanted",[17],60
same,"Plant response rating, Signalgrass",[18]; 31 g ai/ha,0
same,"Plant response rating, Signalgrass",[18]; 62 g ai/ha,45
same,"Plant response rating, Signalgrass",[18]; 125 g ai/ha,60
same,"Plant response rating, Signalgrass",[18]; 250 g ai/ha,95
same,"Plant response rating, Foxtail, Giant",[19]; 31 g ai/ha,0
same,"Plant response rating, Foxtail, Giant",[19]; 62 g ai/ha,75
same,"Plant response rating, Foxtail, Giant",[19]; 125 g ai/ha,100
same,"Plant response rating, Foxtail, Giant",[19]; 250 g ai/ha,100
same,"Plant response rating, Cupgrass, Woolly",[20]; 31 g ai/ha,0
same,"Plant response rating, Cupgrass, Woolly",[20]; 62 g ai/ha,40
same,"Plant response rating, Cupgrass, Woolly",[20]; 125 g ai/ha,95
same,"Plant response rating, Cupgrass, Woolly",[20]; 250 g ai/ha,100
same,"Plant response rating, Crabgrass, Large",[21]; 31 g ai/ha,0
same,"Plant response rating, Crabgrass, Large",[21]; 62 g ai/ha,60
same,"Plant response rating, Crabgrass, Large",[21]; 125 g ai/ha,100
same,"Plant response rating, Crabgrass, Large",[21]; 250 g ai/ha,100
same,"Plant response rating, Canarygrass",[22]; 31 g ai/ha,0
same,"Plant response rating, Canarygrass",[22]; 62 g ai/ha,40
same,"Plant response rating, Canarygrass",[22]; 125 g ai/ha,100
same,"Plant response rating, Canarygrass",[22]; 250 g ai/ha,100
same,"Plant response rating, Millet",[23]; 31 g ai/ha,0
same,"Plant response rating, Millet",[23]; 62 g ai/ha,0
same,"Plant response rating, Millet",[23]; 125 g ai/ha,15
same,"Plant response rating, Millet",[23]; 250 g ai/ha,90
same,"Plant response rating, Wheat, Winter",[24]; 31 g ai/ha,0
same,"Plant response rating, Wheat, Winter",[24]; 62 g ai/ha,10
same,"Plant response rating, Wheat, Winter",[24]; 125 g ai/ha,15
same,"Plant response rating, Wheat, Winter",[24]; 250 g ai/ha,40
same,"Plant response rating, Field Violet",[25]; 31 g ai/ha,70
same,"Plant response rating, Field Violet",[25]; 62 g ai/ha,70
same,"Plant response rating, Field Violet",[25]; 125 g ai/ha,85
same,"Plant response rating, Field Violet",[25]; 250 g ai/ha,100
same,"Plant response rating, Goosegrass",[26]; 31 g ai/ha,65
same,"Plant response rating, Goosegrass",[26]; 62 g ai/ha,80
same,"Plant response rating, Goosegrass",[26]; 125 g ai/ha,100
same,"Plant response rating, Goosegrass",[26]; 250 g ai/ha,100
